Test results published in US20120219543A1, “METHODS AND PHARMACEUTICAL COMPOSITIONS FOR THE TREATMENT OF DISORDERS OF GLUCOSE HOMEOSTASIS” (priority 2009, published 2012).
“Also recorded” adds a separate entry of the source.

Experiments:
[1] = system: E12.5 pancreases from knockout (CFTR-/-) mice; experiment: Organ culture of E12.5 pancreases from Cftr knockout (Cftr-/-) mice, insulin-positive cell area; type: cell-based; conditions: 10 μM GlyH-101, 6 days of culture
Method: (§1) FIG. 1: Effects of GlyH-H101 on endocrine cell development. Quantification by real-time PCR of insulin (A) and MafA (B) mRNA transcripts in E 13.5 Rat pancreases before (D0) and after 1, 3, 5 and 7 days of culture (D1, D3, D5 and D7 respectively) with or without 10 μM GlyH-101. Each data point represents the mean±sem of at least four independent experiments ***, p<0.001. (C) Immunohistological analysis of E13.5 Rat pancreases cultured 5 days in the presence or in absence of 10 μM GlyH-101. Insulin and amylase staining were respectively in red and green. Nuclei were stained in blue with Hoechst. Scale bar: 50 μm (D). β cell differentiation was evaluated by quantification of the absolute surface area occupied by insulin staining in E 13.5 Rat pancreases after 5 days of culture in presence or in absence of 10 μM GlyH-101. Values are means±sem of at least three independent experiments *, p<0.05; (E) Quantification by real-time PCR of Ngn3 transcripts in E13.5 Rat pancreases before (D0) and after 1, 3, 5 and 7 days of culture (D0, D1, D3, D5 and D7 respectively) with or without 10 μM GlyH-101. […] (G) Quantification of the number of NGN3 positive-cells in E13.5 Rat pancreases cultured for 5 days in presence or in absence of 10 μM GlyH-101. […]
(§2) To quantify the surface area of insulin, glucagon, PCSK1/3, CPA and amylase-expressing cells, all sections of each pancreatic rudiment were digitized. […]

[2] = system: E12.5 pancreases from WT (CFTR+/+) mice; experiment: Organ culture of E12.5 pancreases from WT (Cftr+/+) mice, insulin-positive cell area; type: cell-based; conditions: 10 μM GlyH-101, 6 days of culture
Method: as §1, §2

[3] = system: mRNA transcripts (insulin, MafA, ZnT-8, Ngn3, NeuroD1, Pou3F4, somatostatin) in E13.5 Rat pancreases; experiment: Real-time PCR of mRNA transcripts in cultured E13.5 rat pancreases; type: cell-based; conditions: for insulin mRNA level increase / ZnT-8 and MafA expression: Glib 5D
From the text: (§3) Pregnant Wistar rats were purchased from the Janvier Breeding centre (CERJ, LeGenet, France). Cftr-knockout (Cftr−/−) and wild-type (Cftr+/+) embryos were obtained from the progeny of heterozygous-heterozygous for the S489X mutation (Snouwaert et al. 1992) matings (CDTA, Orléans, France). The first day postcoitum was taken as embryonic day (E)0.5. Pregnant rats were killed with CO2 asphyxiation and pregnant mice by cervical dislocation according to guidelines issued by the French Animal Care Committee. Dorsal pancreatic buds from E13.5 rat and E12.5 mice embryos were dissected as described previously (Miralles et al. 1998). Briefly, the stomach, pancreas and a small portion of the intestine were dissected together, and then the pancreas primordium was isolated.
(§4) Dorsal pancreatic rudiments were cultured on 0.45 μm filters (Millipore) at the air-medium interface in a 35 mm sterile Petri dishes containing 2 ml RPMI-1640 medium (Invitrogen) supplemented with 100 U/ml penicillin, 100 μg/ml streptomycin, 10 mmol/L HEPES, 2 mmol/L L-glutamine, 1× non-essential aminoacids (Invitrogen) and 10% heat-inactivated fetal calf serum (HyClone, Logan, Utah, USA). Glibenclamide (MP Biomedical), and Glycine hydrazide (GlyH-101)(Calbiochem), used at the indicated concentrations, were first dissolved as concentrated solutions in dimethylsulfoxide DMSO (Sigma), the final concentration of DMSO in the culture medium was less than 0.5% (vol/vol). Glibenclamide and GlyH-101 were added to the media daily. The cultures were incubated at 37° C. in a humidified atmosphere composed of 95% air and 5% CO2. At the end of the culture period, the pancreases were photographied, and fixed as described below or harvested for RNA extraction.
Total RNA was isolated from pools of at least three pancreases using the Qiagen RNeasy Microkit (Qiagen, Courtaboeuf, France) and reverse transcribed using Superscript reagents (Invitrogen). Real-time PCR was performed with the 7300 Fast real-time PCR system (Applied Biosystem) using either Taqman universal PCR master mix or SYBR green PCR master mix (Applied Bio system) with primers and labelled probes specific for each gene. Peptidylpropyl isomerase A/Cyclophilin A was used as endogenous control and E16.5 pancreas cDNA as calibrator sample. The data were analyzed by comparative cycle threshold method (Livak and Schmittgen 2001) and presented as the fold change in gene expression. At least three pools of explants were analysed by condition.

[4] = system: E13.5 Rat embryonic pancreases (PDX-1+ progenitors, insulin-expressing cells); experiment: BrdU incorporation (proliferation) in cultured E13.5 rat pancreases; type: cell-based; conditions: 10 μM GlyH-101, D5, BrdU during last hour
Method: as §4, with “Glibenclamide and GlyH-101 were added to the media daily. The cultures were incubated at 37° C. in a humidified atmosphere composed of 95% air and 5% CO2. At the end of the culture period, the pancreases were photographied, and fixed as described below or harvested for RNA extraction.” left out
To quantify the surface area of insulin, glucagon, PCSK1/3, CPA and amylase-expressing cells, all sections of each pancreatic rudiment were digitized. […] The surface of insulin, glucagon, PCSK1/3, CPA, amylase and Hoechst stainings were quantified using Iplab (Scanalytics). […] To measure proliferation of the early progenitors expressing PDX1, we counted the frequency of BrdU positive progenitors expressing PDX1 among 3000 early progenitors expressing PDX1 per rudiment. To quantify the absolute number of NGN3-expressing cells, pancreatic rudiments were sectioned and all sections were stained with an anti-NGN3 antibody. Positive cells were counted on all sections of each pancreatic rudiment. […]

[5] = system: E13.5 Rat embryonic pancreases; experiment: Organ culture of E13.5 rat embryonic pancreases: morphology, immunohistochemistry and surface/cell quantification; type: cell-based
From the text: as §3, §4
The pancreatic rudiments were fixed in 10% formalin, pre-embedded in agarose gel (4% of type VII low-gelling-temperature agarose [Sigma] in H2O) and embedded in paraffin. Immunohistochemistry was performed on 4-μm paraffin sections as previously described) (Duvillie et al. 2006). The primary antibodies were mouse anti insulin (1/2000; Sigma), rabbit anti-glucagon (1/1000; Diasorin), rabbit anti-amylase (1/300; Sigma), rabbit anti-carboxypeptidase A (CPA) (1/600; Biogenesis, Kidlington, Oxford, UK), rabbit anti-PDX1 (1/1000) (Duvillie et al. 2006) mouse anti-BrdU (1/2; Amersham Biosciences, Buckingham, UK), rabbit anti-Proprotein Convertase Subtilisin/Kexin 1/3 (PCSK1/3), rabbit anti-Ngn3 (1/100, (Guillemain et al. 2007) The fluorescent secondary antibodies were fluorescein anti-rabbit antibody (1/200; Jackson Immunoresearch, Baltimore, Md., USA), fluorescein goat anti-rabbit Alexa Fluor 488 (1/400; Invitrogen) and Texas red anti-mouse antibody (1/200; Jackson). Nuclei were stained in blue with Hoechst 33342 (0.3 μg/ml; Invitrogen). Ngn3 detection was performed as previously described (Guillemain et al. 2007) using the Vectastain elite ABC kit (Vector laboratories).
To quantify the surface area of insulin, glucagon, PCSK1/3, CPA and amylase-expressing cells, all sections of each pancreatic rudiment were digitized. Alternate sections were examined to avoid counting the same cell twice. The surface of insulin, glucagon, PCSK1/3, CPA, amylase and Hoechst stainings were quantified using Iplab (Scanalytics). The stained areas were summed to obtain the total surface area per rudiment in mm^2. To measure proliferation of the early progenitors expressing PDX1, we counted the frequency of BrdU positive progenitors expressing PDX1 among 3000 early progenitors expressing PDX1 per rudiment. To quantify the absolute number of NGN3-expressing cells, pancreatic rudiments were sectioned and all sections were stained with an anti-NGN3 antibody. Positive cells were counted on all sections of each pancreatic rudiment. A minimum of three rudiments was analyzed per condition.

[6] = system: beta cell mass of embryos of pregnant mice; experiment: In vivo administration to pregnant mice, insulin staining surface of embryonic pancreas; conditions: E12.5 pregnant mice, 10 mg/kg/day for 5 days, intraperitoneal, embryos harvested at E18.5
Method: To evaluate its effects in vivo, GlyH 101 was administrated to a E12.5 pregnant mice for 5 days at 10 mg/kg/day (according to Yang et al. 2008) in a saline DMSO solution ([…]) by intraperitoneal injection two times a day. The embryos were harvested at E18.5 and the pancreas fixed for histological immunostaining. The surface of insulin staining was quantified and normalized to the whole pancreatic tissue.

[7] = system: human liver cell line HepG2; conditions: HepG2 cultured with 100 μM glibenclamide; cited from earlier work
[8] = target: CFTR channel (Homo sapiens, UniProt P13569); conditions: open-channel block mechanism; cited from earlier work
[9] = 100 μM, 7 days of culture, vs absence

CFTR channel, sequence (P13569 whole entry): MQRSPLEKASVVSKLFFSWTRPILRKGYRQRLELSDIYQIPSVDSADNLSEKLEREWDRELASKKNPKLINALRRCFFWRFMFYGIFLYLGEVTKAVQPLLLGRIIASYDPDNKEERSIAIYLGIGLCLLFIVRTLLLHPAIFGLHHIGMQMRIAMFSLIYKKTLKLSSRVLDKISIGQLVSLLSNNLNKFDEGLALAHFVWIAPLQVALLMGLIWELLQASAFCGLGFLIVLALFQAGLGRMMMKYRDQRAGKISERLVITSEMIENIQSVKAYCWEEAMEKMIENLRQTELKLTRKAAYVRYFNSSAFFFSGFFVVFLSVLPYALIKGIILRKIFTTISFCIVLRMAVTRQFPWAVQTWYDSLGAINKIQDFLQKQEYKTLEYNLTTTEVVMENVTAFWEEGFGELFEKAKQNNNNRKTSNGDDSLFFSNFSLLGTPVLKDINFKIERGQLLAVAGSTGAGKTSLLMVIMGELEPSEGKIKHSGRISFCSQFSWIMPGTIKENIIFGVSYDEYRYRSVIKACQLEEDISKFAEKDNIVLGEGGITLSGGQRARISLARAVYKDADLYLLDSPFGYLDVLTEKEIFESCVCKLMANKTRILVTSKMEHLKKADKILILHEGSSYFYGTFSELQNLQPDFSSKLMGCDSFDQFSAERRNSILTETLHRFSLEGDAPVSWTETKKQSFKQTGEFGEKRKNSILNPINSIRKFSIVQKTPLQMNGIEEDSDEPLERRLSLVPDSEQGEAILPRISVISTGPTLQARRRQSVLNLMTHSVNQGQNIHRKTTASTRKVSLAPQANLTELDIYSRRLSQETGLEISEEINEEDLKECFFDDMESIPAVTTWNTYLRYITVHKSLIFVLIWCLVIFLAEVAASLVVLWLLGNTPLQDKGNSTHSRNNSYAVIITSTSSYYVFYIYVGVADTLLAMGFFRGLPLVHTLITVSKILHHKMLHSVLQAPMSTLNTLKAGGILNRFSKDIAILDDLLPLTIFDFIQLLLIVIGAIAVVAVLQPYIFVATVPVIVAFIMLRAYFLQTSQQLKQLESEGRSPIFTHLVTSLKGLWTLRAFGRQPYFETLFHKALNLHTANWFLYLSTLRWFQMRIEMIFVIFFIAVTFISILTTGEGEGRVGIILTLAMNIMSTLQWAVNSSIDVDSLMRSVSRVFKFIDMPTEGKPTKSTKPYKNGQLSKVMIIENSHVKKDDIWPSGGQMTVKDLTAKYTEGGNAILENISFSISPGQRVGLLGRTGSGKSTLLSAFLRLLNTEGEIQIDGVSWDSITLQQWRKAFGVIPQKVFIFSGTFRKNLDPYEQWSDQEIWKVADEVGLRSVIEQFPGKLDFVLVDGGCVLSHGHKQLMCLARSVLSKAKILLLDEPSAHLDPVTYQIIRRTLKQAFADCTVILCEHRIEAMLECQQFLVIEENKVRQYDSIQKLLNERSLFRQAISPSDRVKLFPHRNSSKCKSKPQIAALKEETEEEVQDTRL

Compound: O=C(CNc1ccc2ccccc2c1)NN=Cc1cc(Br)c(O)c(Br)c1O [GlyH-101, N-2-napthalenyl-[(3,5-dibromo-2,4-dihydroxyphenyl)methylene]glycine hvdrazide]
- insulin+ cell area [1]: unable to modify
- insulin+ cell area [2]: increase
- increase of MafA mRNA transcripts ([3]; 10 μM GlyH-101, D3): more than twofold
- increase of insulin mRNA transcripts ([3]; 10 μM GlyH-101, D3): more than twofold
- increase in Ngn3 expression (real-time PCR) ([3]; 10 μM GlyH-101, D5): 8 fold
- insulin expression ([3]; 10 μM GlyH-101, after 5 and 7 days of culture): sixfold
- Ngn3 expression (real-time PCR) ([3]; 10 μM GlyH-101, from D1): strong increase
- proliferative rate of insulin-expressing cells (BrdU) [4]: No differences
- exocrine differentiation ([5]; 10 μM GlyH-101): did not observe any effects
- area occupied by insulin-positive cells ([5]; 10 μM GlyH-101, 5 days of culture): dramatic increase
- pool/number of Ngn3+ pancreatic endocrine progenitor cells ([5]; 10 μM GlyH-101, D5): increased number; also recorded: amplified and maintained
- beta cell mass (insulin staining surface normalized to whole pancreatic tissue) [6]: increased

Compound: COc1ccc(Cl)cc1C(=O)NCCc1ccc(S(=O)(=O)NC(=O)NC2CCCCC2)cc1 [glibenclamide]
- NeuroD1 expression ([3]; 100 μM, D5): significantly increased; also recorded: twofold
- NeuroD1 expression ([3]; 100 μM, D7): enhanced
- Pou3F4/Brn4 mRNA level ([3]; 100 μM, D7): significant increase
- NeuroD1 mRNA levels ([3]; 100 μM, after 1 and 3 days of culture, vs absence): similar
- Ngn3 expression increase ([3]; 100 μM, after 5 days of culture, p<0.001): sevenfold; also recorded: seven
- increase in somatostatin expression ([3]; 100 μM, after 7 days of culture): twofold
- Ngn3 mRNA level ([3]; 100 μM, after 7 days of culture, p<0.001): dramatically higher; also recorded: threefold
- insulin expression (real-time PCR) ([3]; 100 μM, as early as D3): strongly reduced
- Ngn3 expression ([3]; 100 μM, day 1 and 3, vs absence): similar
- expression of β-cell markers ZnT-8 and MafA ([3]; 100 μM, over the 7 days of culture): did not affect
- reversal of low insulin content and reduced insulin gene transcription ([3]; 2 days after glibenclamide removal): completely reverted
- insulin mRNA level increase ([3]; D9, vs without): threefold
- insulin mRNA level increase ([3]; D11, vs without): twofold
- insulin mRNA level increase ([3]; D14, vs without): threefold
- ZnT-8 and MafA expression ([3]; after 9, 11 and 14 days of culture, p<0.01): dramatic increase
- ZnT-8 and MafA expression ([3]; after 7 days of culture): similar
- insulin mRNA level ([3]; glibenclamide only first 5 days of culture (Glib 5D), D7, vs without): identical
- pancreatic growth ([5]; 10 nM, 100 nM, 1, 10 or 100 μM glibenclamide vs control, 7 days of culture): similar
- number of NGN3+ cells (immunohistochemistry) ([5]; 100 μM, 5 days of culture, vs absence): threefold
- increase of the number of glucagon-expressing cells ([5]; 100 μM, 7 days of culture): 3.5 fold
- decrease of surface area occupied by the insulin-cell population [5, 9]: 70%
- surface area occupied by amylase- and carboxypeptidaseA-positive cells [5, 9]: No differences
- surface area occupied by PCSK1/3 staining in PDX-1+ cells ([5]; 100 μM, 7 days of culture, vs without): similar
- exocrine (acinar and ductal) development ([5]; 100 μM, 7 days, amylase, carboxypeptidaseA, SPP1 and CFTR markers): did not to modify
- apoptosis (Hoechst staining of the nuclei) ([5]; 10 and 100 μM, 7 days of culture, vs without): no difference
- overall size of pancreases (quantitative analysis) ([5]; 10 or 100 μM, 7 days of culture): lack of glibenclamide toxicity
- insulin-staining area (insulin-positive cells) ([5]; Glib 5D-treated pancreas): significant increase
- insulin-expressing cells observed ([5]; Glib-5D pancreases at D9, D11 or D14): A large number
- insulin-containing cells detected ([5]; glibenclamide present throughout 9, 11 or 14 days of culture): less
- pancreas development ([5]; up to 1 micromolar): did not affect
- toxicity and apoptosis [7]: no toxicity nor apoptosis
- CFTR channel inhibition [8]: inhibits CFTR channel in a dose-dependant manner
